Measured values reported in ChEMBL document CHEMBL5113393, “Discovery of 2-((2-methylbenzyl)thio)-6-oxo-4-(3,4,5-trimethoxyphenyl)-1,6-dihydropyrimidine-5-carbonitrile as a novel and effective bromodomain and extra-terminal (BET) inhibitor for the treatment of sepsis” (Eur J Med Chem, 2022).
Calls of active or inactive are those of the source. The rule behind the calls is not given here.

Key:
[1] = target: Bromodomain-containing protein 4 (Homo sapiens, UniProt O60885); test: Inhibition of BRD4 BD1 (unknown origin) using FAM-labeled JQ-1 as fluorescent substrate assessed as inhibition constant incubated for 30 mins by competitive fluorescence polarization method
RAW264.7 [2] = test: Antiinflammatory activity in mouse RAW264.7 cells assessed as inhibition of LPS-induced NO production at 5 uM preincubated for 2 hrs followed by LPS stimulation and measured after 22 hrs by Griess reagent-based assay relative to control; type: functional; settings: time 24 hrs
RAW264.7 [3] = test: Antiinflammatory activity in mouse RAW264.7 cells assessed as inhibition of LPS-induced NO production at 10 uM preincubated for 2 hrs followed by LPS stimulation and measured after 22 hrs by Griess reagent-based assay relative to control; type: functional; settings: time 24 hrs
RAW264.7 [4] = test: Antiinflammatory activity in mouse RAW264.7 cells assessed as reduction in LPS-induced IL-6 mRNA expression preincubated for 2 hrs followed by LPS stimulation and measured after 22 hrs by RT-qPCR analysis; type: functional, cell-based; settings: dose 5-25 µM, time 24.0 hrs, DDE = dose-dependent effect
RAW264.7 [5] = test: Antiinflammatory activity in mouse RAW264.7 cells assessed as reduction in LPS-induced IL-1beta mRNA expression preincubated for 2 hrs followed by LPS stimulation and measured after 22 hrs by RT-qPCR analysis; type: functional, cell-based; settings: dose 5-25 µM, time 24.0 hrs, DDE = dose-dependent effect
RAW264.7 [6] = test: Antiinflammatory activity in mouse RAW264.7 cells assessed as reduction in LPS-induced TNF-alpha mRNA expression preincubated for 2 hrs followed by LPS stimulation and measured after 22 hrs by RT-qPCR analysis; type: functional, cell-based; settings: dose 5-25 µM, time 24.0 hrs, DDE = dose-dependent effect
RAW264.7 [7] = test: Antiinflammatory activity in mouse RAW264.7 cells assessed as reduction in LPS-induced IL-6 level at 5 to 10 uM preincubated for 2 hrs followed by LPS stimulation and measured after 22 hrs by ELISA; type: functional, cell-based; settings: dose 5-10 µM, time 24.0 hrs
RAW264.7 [8] = test: Antiinflammatory activity in mouse RAW264.7 cells assessed as reduction in LPS-induced TNF-alpha level at 5 to 10 uM preincubated for 2 hrs followed by LPS stimulation and measured after 22 hrs by ELISA; type: functional, cell-based; settings: dose 5-10 µM, time 24.0 hrs
Mus musculus [9] = test: Protection against LPS-induced sepsis in C57BL/6 mouse model assessed as improvement in orbital movement at 30 mg/kg, ip qd administered for 3 days followed by LPS stimulation; type: functional, organism-based; settings: time 3.0 day
Mus musculus [10] = test: Protection against LPS-induced sepsis in C57BL/6 mouse model assessed as reduction in white secretion from eyes at 30 mg/kg, ip qd administered for 3 days followed by LPS stimulation; type: functional, organism-based; settings: time 3.0 day
Mus musculus [11] = test: Protection against LPS-induced sepsis in C57BL/6 mouse model assessed as improvement in mobility at 30 mg/kg, ip qd administered for 3 days followed by LPS stimulation; type: functional, organism-based; settings: time 3.0 day
Mus musculus [12] = test: Protection against LPS-induced sepsis in C57BL/6 mouse model assessed as increase in survival rate at 15 mg/kg, ip qd administered for 3 days followed by LPS stimulation and measured every 2 hrs for 120 hrs (reference value: 10%); type: functional
Mus musculus [13] = test: Protection against LPS-induced sepsis in C57BL/6 mouse model assessed as increase in survival rate at 30 mg/kg, ip qd administered for 3 days followed by LPS stimulation and measured every 2 hrs for 120 hrs (reference value: 10%); type: functional
Mus musculus [14] = test: Protection against LPS-induced sepsis in C57BL/6 mouse model assessed as reduction in hypothermia administered intraperitoneally daily for 3 days followed by LPS stimulation for 12 hrs and measured every 1 hr by digital thermometer; type: functional, organism-based; settings: dose lower […], dose upper 30.0 mg/kg, route ip, time 84.0 hrs, DDE = dose-dependent effect
Mus musculus [15] = test: Antiinflammatory activity against LPS-induced sepsis in C57BL/6 mouse model assessed as reduction in IL-6 level at 15 mg/kg, ip qd administered for 3 days followed by LPS stimulation and measured after 12 hrs by ELISA; type: functional, organism-based; settings: time 84.0 hrs
Mus musculus [16] = test: Antiinflammatory activity against LPS-induced sepsis in C57BL/6 mouse model assessed as reduction in TNF-alpha level at 15 mg/kg, ip qd administered for 3 days followed by LPS stimulation and measured after 12 hrs by ELISA; type: functional, organism-based; settings: time 84.0 hrs

Work on `COc1cc(-c2nc(SCc3ccccc3C)[nH]c(=O)c2C#N)cc(OC)c1OC` yielded a Ki [1] of 830 nM, an inhibition at 5 µM (RAW264.7 [2]) of 74.2% and an inhibition at 10 µM (RAW264.7 [3]) of 99.8%. For the same compound, the Activity (RAW264.7 [4]) was “Dde”, the Activity (RAW264.7 [5]) was “Dde” and the Activity (RAW264.7 [6]) was “Dde”. The Activity (RAW264.7 [7]) was “Active”, the Activity (RAW264.7 [8]) was “Active” and the Activity (Mus musculus [9]) was “Active”. The Activity (Mus musculus [10]) was “Active”, the Activity (Mus musculus [11]) was “Active” and the survival at 15 mg/kg (Mus musculus [12]) was 50%. The survival at 30 mg/kg (Mus musculus [13]) was 80%, the Activity (Mus musculus [14]) was “Dde” and the Activity (Mus musculus [15]) was “Active”. The Activity (Mus musculus [16]) was “Active”.
